Assay results as given in patent US20260053811A1, “METHODS OF TREATING HYPERTENSION IN OBESE SUBJECTS” (Mineralys Therapeutics, Inc., priority 2022, published 2026).

Test system: hypertensive subjects
Experiment: Seated automated office blood pressure (AOBP) in randomized, placebo-controlled, dose-ranging study
Type: in vivo, human
Conditions: Part 1
Procedure: A randomized, double-blinded, placebo-controlled, dose-ranging, multicenter study was conducted to evaluate the effect of orally administered Compound A HBr on blood pressure for the treatment of hypertension in male and female subjects ≥18 years of age.
The study consists of two parts. For enrollment into Part 1 of the study, a subject's value of plasma renin activity (PRA) must be ≤1 ng/mL/h based on morning measurement. If the value of PRA >1 ng/mL/h based on morning measurement, then subjects may be eligible to enter Part 2 of the study.
For Part 1, 163 enrolled subjects ≥18 years of age were randomized into 6 equal treatment groups (1:1:1:1:1:1) to 12.5 mg BID, 25 mg BID, 12.5 mg QD, 50 mg QD, 100 mg QD, or placebo. After a review of interim clinical data, the 2 lowest dose levels (12.5 mg QD and 12.5 mg BID) were stopped for future randomization due to a lack of consistent meaningful reduction of blood pressure, but the patients randomized to that point remained in the study through completion. Thus, after the review of interim clinical data, subjects were randomized into 4 equal treatment groups (1:1:1:1) to 25 mg BID, 50 mg QD, 100 mg QD, or placebo.
For Part 2, 36 enrolled subjects ≥18 years of age were randomized (5:1) to either 100 mg QD Compound A HBr or placebo such that the Compound A HBr treatment group consisted of approximately 30 subjects and the placebo treatment group will consist of approximately 6 subjects.
Subjects orally administered the assigned study drug (Compound A HBr or placebo) according to the assigned dosing regimen for 8 weeks beginning on Study Day 1. All subjects in Part 1 (regardless of dosing group) received BID dosing to preserve the integrity of the blind; active drug is administered as the morning dose for all QD dose groups. Subjects returned to the research facility or were seen by the clinical investigator or approved home health care professional at the end of Study Weeks 1, 2, 3, 4, 5, 6, 7, and 8 (±2 days) for protocol-defined efficacy and safety assessments and procedures, assessment of adverse events (AEs), and confirmation of compliance with study drug usage. Subjects also completed a telephone visit and blood pressure (BP) check at home approximately 3 days post last dose of study drug. Subjects attended up to 14 full clinic visits, including a pre-Screening visit, a Screening/start of Placebo Run-in visit, a second visit during Placebo Run-in, a clinic visit to initiate the ABPM procedure, a Randomization visit, 8 weekly visits during double-blind treatment, and an end-of-study visit scheduled 4 weeks after the last study treatment for final efficacy and safety assessments.
An automated oscillometric sphygmomanometer device was used to measure the subjects' systolic and diastolic blood pressure in office after approximately 5 minutes of rest in the seated position.
The primary endpoint is the change in office-measured (mean of last 2 of 5 unattended measurements using an automated oscillometric sphygmomanometer device after approximately 5 minutes of rest in the seated position) systolic blood pressure (SBP) from baseline to the end of Study Week 8.
Secondary endpoints of this study were: • (a) Change in 24-hour ambulatory blood pressure monitoring (ABPM) parameters (systolic and diastolic) from baseline to the end of Study Week 7. • (b) Change in office-measured SBP from baseline to the end of Study Weeks 1, 2, 3, 4, 5, 6, and 7. • (c) Change in office-measured diastolic blood pressure (DBP) from baseline to the end of Study Weeks 1, 2, 3, 4, 5, 6, 7, and 8. • (d) Proportion of subjects who achieve office-measured BP of ≤130/80 mm Hg by the end of Study Week 8.

[1] = 25 mg BID, BMI at baseline 25-30 kg/m^2
[2] = 25 mg BID, BMI at baseline <25 kg/m^2
[3] = 25 mg BID, BMI at baseline >30 kg/m^2
[4] = 25 mg BID, Seated SBP Tertile High
[5] = 25 mg BID, Seated SBP Tertile Low
[6] = 25 mg BID, Seated SBP Tertile Middle
[7] = 25 mg BID, Systolic Blood Pressure Tertile at Baseline High
[8] = 25 mg BID, Systolic Blood Pressure Tertile at Baseline Low
[9] = 25 mg BID, Systolic Blood Pressure Tertile at Baseline Middle
[10] = 25 mg BID, Thiazide Diuretic Use at Baseline No
[11] = 25 mg BID, Thiazide Diuretic Use at Baseline Yes

SMILES: CC(=O)N[C@H]1CC[C@H](NC(=O)CN2CCN(c3nncc(-c4ccc(C)cc4)n3)CC2)CC1 [Compound A HBr]
- Mean (SD) Change from Baseline at Week 8 in Automated Office-Measured Diastolic Blood Pressure (25 mg BID, BMI >30 kg/m^2): −5.33 (8.88) mmHg
- Mean (SD) Automated Office-Measured Systolic Blood Pressure at Wk 8 [1]: 134.11 (15.72) mmHg
- Mean (SD) Change from Baseline at Week 8 in Automated Office-Measured Systolic Blood Pressure [1]: −4.89 (13.17) mmHg
- Mean (SD) Automated Office-Measured Systolic Blood Pressure at Wk 8 [2]: 126.25 (18.52) mmHg
- Mean (SD) Change from Baseline at Week 8 in Automated Office-Measured Systolic Blood Pressure [2]: −18.13 (15.56) mmHg
- Mean (SD) Automated Office-Measured Systolic Blood Pressure at Wk 8 [3]: 130.93 (17.43) mmHg
- Mean (SD) Change from Baseline at Week 8 in Automated Office-Measured Systolic Blood Pressure [3]: −11.13 (13.83) mmHg
- Mean (SD) Automated Office-Measured Diastolic Blood Pressure at Wk 8 (25 mg BID, Race Black or AA): 75.43 (10.05) mmHg
- Mean (SD) Automated Office-Measured Systolic Blood Pressure at Wk 8 (25 mg BID, Race Black or AA): 124.00 (15.68) mmHg
- Mean (SD) Change from Baseline at Week 8 in Automated Office-Measured Diastolic Blood Pressure (25 mg BID, Race Black or AA): −7.79 (9.03) mmHg
- Mean (SD) Change from Baseline at Week 8 in Automated Office-Measured Systolic Blood Pressure (25 mg BID, Race Black or AA): −13.29 (15.91) mmHg
- Mean (SD) Automated Office-Measured Diastolic Blood Pressure at Wk 8 (25 mg BID, Race Other): 75.43 (14.14) mmHg
- Mean (SD) Automated Office-Measured Systolic Blood Pressure at Wk 8 (25 mg BID, Race Other): 133.71 (16.53) mmHg
- Mean (SD) Change from Baseline at Week 8 in Automated Office-Measured Diastolic Blood Pressure (25 mg BID, Race Other): −2.31 (12.36) mmHg
- Mean (SD) Change from Baseline at Week 8 in Automated Office-Measured Systolic Blood Pressure (25 mg BID, Race Other): −9.07 (13.59) mmHg
- Mean (SD) Automated Office-Measured Diastolic Blood Pressure at Wk 8 [4]: 74.00 (7.39) mmHg
- Mean (SD) Change from Baseline at Week 8 in Automated Office-Measured Diastolic Blood Pressure [4]: −7.36 (5.62) mmHg
- Mean (SD) Automated Office-Measured Diastolic Blood Pressure at Wk 8 [5]: 72.40 (9.55) mmHg
- Mean (SD) Change from Baseline at Week 8 in Automated Office-Measured Diastolic Blood Pressure [5]: −6.15 (8.84) mmHg
- Mean (SD) Automated Office-Measured Diastolic Blood Pressure at Wk 8 [6]: 79.09 (17.89) mmHg
- Mean (SD) Change from Baseline at Week 8 in Automated Office-Measured Diastolic Blood Pressure [6]: 0.91 (15.57) mmHg
- Mean (SD) Automated Office-Measured Diastolic Blood Pressure at Wk 8 (25 mg BID, Sex Female): 77.12 (15.02) mmHg
- Mean (SD) Automated Office-Measured Systolic Blood Pressure at Wk 8 (25 mg BID, Sex Female): 132.88 (16.99) mmHg
- Mean (SD) Change from Baseline at Week 8 in Automated Office-Measured Diastolic Blood Pressure (25 mg BID, Sex Female): −2.41 (13.79) mmHg
- Mean (SD) Change from Baseline at Week 8 in Automated Office-Measured Systolic Blood Pressure (25 mg BID, Sex Female): −10.62 (14.75) mmHg
- Mean (SD) Automated Office-Measured Diastolic Blood Pressure at Wk 8 (25 mg BID, Sex Male): 72.82 (9.34) mmHg
- Mean (SD) Automated Office-Measured Systolic Blood Pressure at Wk 8 (25 mg BID, Sex Male): 128.82 (16.45) mmHg
- Mean (SD) Change from Baseline at Week 8 in Automated Office-Measured Diastolic Blood Pressure (25 mg BID, Sex Male): −5.64 (7.70) mmHg
- Mean (SD) Change from Baseline at Week 8 in Automated Office-Measured Systolic Blood Pressure (25 mg BID, Sex Male): −9.36 (13.49) mmHg
- Mean (SD) Automated Office-Measured Systolic Blood Pressure at Wk 8 [7]: 139.86 (16.99) mmHg
- Mean (SD) Change from Baseline at Week 8 in Automated Office-Measured Systolic Blood Pressure [7]: −14.14 (13.63) mmHg
- Mean (SD) Automated Office-Measured Systolic Blood Pressure at Wk 8 [8]: 120.70 (13.06) mmHg
- Mean (SD) Change from Baseline at Week 8 in Automated Office-Measured Systolic Blood Pressure [8]: −12.50 (13.48) mmHg
- Mean (SD) Automated Office-Measured Systolic Blood Pressure at Wk 8 [9]: 135.45 (15.29) mmHg
- Mean (SD) Change from Baseline at Week 8 in Automated Office-Measured Systolic Blood Pressure [9]: −5.41 (14.64) mmHg
- Automated Office-Measured Diastolic Blood Pressure, Week 8, Mean (SD) [10]: 74.36 (8.31) mmHg
- Mean (SD) Automated Office-Measured Systolic Blood Pressure at Wk 8 [10]: 132.45 (15.21) mmHg
- Mean (SD) Change from Baseline at Week 8 in Automated Office-Measured Diastolic Blood Pressure [10]: −6.09 (7.34) mmHg
- Mean (SD) Change from Baseline at Week 8 in Automated Office-Measured Systolic Blood Pressure [10]: −9.32 (14.08) mmHg
- Automated Office-Measured Diastolic Blood Pressure, Week 8, Mean (SD) [11]: 76.12 (15.60) mmHg
- Mean (SD) Automated Office-Measured Systolic Blood Pressure at Wk 8 [11]: 130.53 (17.84) mmHg
- Mean (SD) Change from Baseline at Week 8 in Automated Office-Measured Diastolic Blood Pressure [11]: −2.12 (13.83) mmHg
- Mean (SD) Change from Baseline at Week 8 in Automated Office-Measured Systolic Blood Pressure [11]: −10.65 (14.39) mmHg
- Mean (SD) Automated Office-Measured Systolic Blood Pressure at Wk 8 (50 mg QD, ACEi/ARB No): 131.13 (13.27) mmHg
- Mean (SD) Change from Baseline at Week 8 in Automated Office-Measured Systolic Blood Pressure (50 mg QD, ACEi/ARB No): −6.75 (15.62) mmHg
- Mean (SD) Automated Office-Measured Systolic Blood Pressure at Wk 8 (50 mg QD, ACEi/ARB Yes): 127.65 (14.07) mmHg
